Assay results published in US20020176882A1, “Additive the improvement and/or stabilization of the keeping quality of microbially perishable products” (priority 1997, published 2002).

Key:
[1] = system: Lactobacilli; assay: quantitative suspension assay, Lactobacilli; format: cell-based; details: control 10^5/ml
Excerpt: (§1) Bacteriological assay methods for additives quantitative suspension assay II (suspension test)
(§2) Microorganisms: aerobic microorganisms (total germ count), Enterobacteriaceae, Enterococci, Lactobacilli, yeasts, molds. These methods are capable of determining the effects of the additives as a function of dosage and duration of action using different microorganisms on different nutrient media.
(§3) Quantitative suspension assay II—suspension test a) Inoculate test germ suspension with the desired test germ, e.g., 10^6/ml, expose for 1-60 min. Place desired formulation to be tested into desiganted germ suspension tubes (different percentages). Await end of exposure times and pour or inoculate into the appropriate agar plates, depending on the germ. […]
(§4) b) Treat the test germ suspension with the desired formulation to be tested (see a) prior to inoculating the test germs (see a). Await end of exposure times and then inoculate with the respective test germs, and inoculate or pour into the appropriate agar plates depending on the test germ.

[2] = system: Enterococci; assay: quantitative suspension assay, Enterococci; format: cell-based; details: control 10^8/ml
Excerpt: as §1, §2, §3, §4

[3] = system: molds; assay: quantitative suspension assay, molds; format: cell-based; details: control 10^5/ml
Excerpt: as §1, §2, §3, §4

[4] = system: yeasts; assay: quantitative suspension assay, yeasts; format: cell-based; details: control 10^5/ml
Excerpt: as §1, §2, §3, §4

[5] = system: Enterobacteria; assay: quantitative suspension assay, Enterobacteria; format: cell-based, Enterobacteriaceae; details: control 10^8/ml
Excerpt: as §1, §2, §3, §4

[6] = system: aerobic microorganisms (total germ count); assay: quantitative suspension assay, total germ count; format: cell-based; details: control 10^8/ml
Excerpt: as §1, §2, §3, §4
Also: test concentration or dose not given here.

Molecule	Lactobacilli germ count ([1]; 5 min exp. time)	Lactobacilli germ count ([1]; 15 min exp. time)	Lactobacilli germ count ([1]; 60 min exp. time)	Enterococci germ count ([2]; 5 min exp. time)	Enterococci germ count ([2]; 15 min exp. time)	Enterococci germ count ([2]; 60 min exp. time)	molds germ count ([3]; 5 min exp. time)	molds germ count ([3]; 15 min exp. time)	molds germ count ([3]; 60 min exp. time)	yeasts germ count ([4]; 5 min exp. time)	yeasts germ count ([4]; 15 min exp. time)	yeasts germ count ([4]; 60 min exp. time)	Enterobacteria germ count ([5]; 5 min exp. time)	Enterobacteria germ count ([5]; 15 min exp. time)	Enterobacteria germ count ([5]; 60 min exp. time)	total germ count ([6]; 5 min exp. time)	total germ count ([6]; 15 min exp. time)	total germ count ([6]; 60 min exp. time)
CC(O)C(=O)O (stereo not drawn) [Lactic acid]	10^5 /ml	10^4 /ml	10^4 /ml	10^7 /ml	10^7 /ml	10^7 /ml	10^5 /ml	10^5 /ml	10^5 /ml	10^5 /ml	10^5 /ml	10^5 /ml	10^6 /ml	10^6 /ml	10^6 /ml	10^7 /ml	10^7 /ml	10^7 /ml
OCc1ccccc1 [Benzyl alcohol]	10^5 /ml	10^5 /ml	10^5 /ml	10^8 /ml	10^7 /ml	10^7 /ml	10^5 /ml	10^4 /ml	10^4 /ml	10^5 /ml	10^4 /ml	10^4 /ml	10^7 /ml	10^7 /ml	10^7 /ml	10^8 /ml	10^7 /ml	10^7 /ml
OCC(O)CO [Glycerol]	10^5 /ml	10^5 /ml	10^5 /ml	10^8 /ml	10^8 /ml	10^8 /ml	10^5 /ml	10^5 /ml	10^5 /ml	10^5 /ml	10^5 /ml	10^5 /ml	10^7 /ml	10^7 /ml	10^7 /ml	10^6 /ml	10^8 /ml	10^8 /ml
tannin [Formulation 1a]	10^5 /ml	10^4 /ml	10^4 /ml	10^7 /ml	10^6 /ml	10^6 /ml	10^4 /ml	10^4 /ml	10^4 /ml	10^4 /ml	10^4 /ml	10^4 /ml	10^6 /ml	10^6 /ml	10^6 /ml	10^6 /ml	10^6 /ml	10^6 /ml
CC(O)CO (stereo not drawn) [Propylene glycol]	10^5 /ml	10^5 /ml	10^5 /ml	10^8 /ml	10^8 /ml	10^8 /ml	10^5 /ml	10^5 /ml	10^5 /ml	10^5 /ml	10^5 /ml	10^5 /ml	10^8 /ml	10^8 /ml	10^8 /ml	10^9 /ml	10^9 /ml	10^9 /ml
